[s4U] = 4-thiouridine base
Experiments:
[1] = system: HCT-8 human ileocecal colorectal adenocarcinoma cell line; test: MTT cytotoxicity assay on HCT-8 cells; assay type: cell-based; conditions: for IC50 / effect on growth and proliferation (FIGS. 7A, 7B): HCT-8; for IC50: MTT, 48 h treatment; for cell viability of HCT-8 cells (FIG. 6A): 50 nM, 48 h, vs control and RNAiMAX group; for effect on growth and proliferation (FIGS. 7A, 7B): 6.25-100 nM
Protocol: (§1) HCT-8, fluorouracil-resistant HCT-8, fluorouracil-resistant LoVo cell lines were cultured in RPMI Medium 1640 medium containing 10% FBS and 1% penicillin/streptomycin. LoVo cell line was cultured in F-12K medium containing 10% FBS and 1% penicillin/streptomycin. All cell lines above were cultured at humidified atmosphere containing 5% CO2 at 37° C.
(§2) In the cytotoxicity assay, exponentially growing cells of each cancer cell line were plated in 96-well microplate at a density of 5000 cells per well in 100 μL of culture medium and allowed to adhere for 24 h before treatment. Serial concentrations of RNA molecules obtained in Example 1 to 4 in a mixture containing a gene delivery carrier, i.e. Lipofectamine™ RNAiMAX Transfection Reagent (Thermo Fisher Scientific, U.S.A.) were then added to the cells. After treated for 48 h, MTT solution (50 μL per well, 1 mg/mL solution) was added to each well and incubated for 4 h at 37° C. Subsequently, 200 μL dimethyl sulfoxide (DMSO) were added and the optical densities of the resulting solutions were calorimetrically determined at 570 nm using a SpectraMax 190 microplate reader (Molecular Devices, Sunnyvale, CA, U.S.A). Dose-response curves were obtained, and the IC50 values were calculated by GraphPad Prism 5 (GraphPad, La Jolla, CA, USA). Each experiment was carried out for three times. IC50 results were expressed as means±standard deviation.

[2] = system: HCT-8/5-FU (5-FU-resistant strain of HCT-8); test: MTT cytotoxicity assay on HCT-8/5-FU cells; assay type: cell-based, human; conditions: for IC50: MTT, 48 h treatment; for effect on growth and proliferation (FIGS. 7A, 7B): 6.25-100 nM
Protocol: as §1, §2

[3] = system: LoVo colorectal adenocarcinoma cell line; test: MTT cytotoxicity assay on LoVo cells; assay type: cell-based; conditions: for IC50: MTT, 48 h treatment; for effect on growth and proliferation (FIGS. 7A, 7B): 6.25-100 nM
Protocol: as §1, §2

[4] = system: LoVo/5-FU (5-FU-resistant strain of LoVo); test: MTT cytotoxicity assay on LoVo/5-FU cells; assay type: cell-based; conditions: for IC50: MTT, 48 h treatment; for effect on growth and proliferation (FIGS. 7A, 7B): 6.25-100 nM
Protocol: as §1, §2

[5] = system: HCT-8 cells; test: Clonogenic assay on HCT-8 cells; assay type: cell-based, human; conditions: 50 nM, vs control group
Protocol: as §1
(§3) In the clonogenic assay, HCT-8 or LoVo cells were plated in 6-well microplate at a density of 1000 cells per well in 2 mL of culture medium and allowed to adhere for 24 h before treatment. Single concentration of RNA molecules obtained in Example 1 to 4 in a mixture containing a gene delivery carrier, i.e. Lipofectamine™ RNAiMAX Transfection Reagent (Thermo Fisher Scientific, U.S.A.) were then added to the cells. After treated for 48 h, discarded the drug solutions and replaced with 2 mL of fresh culture medium. After culture 14 days, discarded the culture medium and the cells were fixated with 4% paraformaldehyde fix solution for 20 min, followed by stained with crystal violet for 10 min and then washed by deionized water. The 6-well microplate was photographed and the number of colonies with more than 50 individual cells were counted using ImageJ software (U.S.A.). Each experiment was carried out for three times. Results were expressed as means±standard deviation.

[6] = system: LoVo cells; test: Clonogenic assay on LoVo cells; assay type: cell-based; conditions: 25 nM, vs control group
Protocol: as §1, §3

[7] = system: HCT-8 cells; test: Wound-healing assay on HCT-8 cells; assay type: cell-based, human; conditions: 50 nM, vs control group
Protocol: as §1
as §3, with “wound-healing” for “clonogenic”, “500,000” for “1000”, “[…]” for “Single concentration”, “[…] A 1 mL bacteria-free pipette tip was used to make a cross-scratch at the bottom of 6-well microplate. The cells in the scratch were washed away using phosphor buffer solution and the 6-well microplate was photographed under a microscope. Single concentration of RNA molecules obtained in Example 1 to 4 in a mixture containing a gene delivery carrier, i.e. Lipofectamine™ RNAiMAX Transfection Reagent (Thermo Fisher Scientific, U.S.A.) were then added to the cells. The cells were then photographed under microscope at 24 and 48 h. ImageJ software was applied to quantify the area of wound created. Each experiment was carried out for three times. Results were expressed as means±standard deviation.” for “deviation.”

[8] = system: LoVo cells; test: Wound-healing assay on LoVo cells; assay type: cell-based; conditions: 25 nM, vs control group
Protocol: as §1
as §3, with “wound-healing” for “clonogenic”, “500,000” for “1000”, “[…]” for “Single concentration”, “[…] A 1 mL bacteria-free pipette tip was used to make a cross-scratch at the bottom of 6-well microplate. The cells in the scratch were washed away using phosphor buffer solution and the 6-well microplate was photographed under a microscope. Single concentration of RNA molecules obtained in Example 1 to 4 in a mixture containing a gene delivery carrier, i.e. Lipofectamine™ RNAiMAX Transfection Reagent (Thermo Fisher Scientific, U.S.A.) were then added to the cells. The cells were then photographed under microscope at 24 and 48 h. ImageJ software was applied to quantify the area of wound created. Each experiment was carried out for three times. Results were expressed as means±standard deviation.” for “deviation.”

O=c1[nH]cc(F)c(=O)[nH]1 [5-FU, fluorouracil, reference compound]
IC50 ([1]; Homo sapiens): 41400 nM
IC50 ([2]; Homo sapiens): 171000 nM
IC50 ([3]; Homo sapiens): 63900 nM
IC50 ([4]; Homo sapiens): 133000 nM

EC41 mimic: 22 bp dsRNA; antisense SEQ ID NO: 47 GGGUGAUUAGCUCAGCUGGGAG, sense SEQ ID NO: 141 CUCCCAGCUGAGCUAAUCACCC; 5′-t of tRNA-Val(UAC) (listed as RNA, chemistry not given here) [22 bp dsRNA; 5′-t of tRNA-Val(UAC)]
cell viability of HCT-8 cells (FIG. 6A) [1]: effective to colorectal cancer cells

EC42 mimic: 22 bp dsRNA; antisense SEQ ID NO: 48 UCGAUCCCGUCAUCACCCACCA, sense SEQ ID NO: 142 UGGUGGGUGAUGACGGGAUCGA; 3′-t of tRNA-Val(UAC) (listed as RNA, chemistry not given here) [22 bp dsRNA; 3′-t of tRNA-Val(UAC)]
cell viability of HCT-8 cells (FIG. 6A) [1]: effective to colorectal cancer cells

EC83 mimic: 22 bp dsRNA; antisense SEQ ID NO: 89 GCCGAAGUGGCGAAAUCGGUAG, sense SEQ ID NO: 183 CUACCGAUUUCGCCACUUCGGC; 5′-t of tRNA-Leu(CAA) (RNA, backbone not given here; tRNA-derived fragment mimic duplex) [22 bp dsRNA; 5′-t of tRNA-Leu(CAA)]
effect on growth and proliferation (FIGS. 7A, 7B) [1]: dose-dependent effect on inhibiting the growth and proliferation
IC50 [1]: 70.6 nM
cytotoxicity ranking on HCT-8 cells (FIG. 6C) ([1]; among synthetic RNA molecules of Example 4): strongest cytotoxicity
effect on growth and proliferation (FIGS. 7A, 7B) [2]: dose-dependent effect on inhibiting the growth and proliferation
IC50 [2]: 63.4 nM
effect on growth and proliferation (FIGS. 7A, 7B) [3]: dose-dependent effect on inhibiting the growth and proliferation
IC50 [3]: 28.8 nM
effect on growth and proliferation (FIGS. 7A, 7B) [4]: dose-dependent effect on inhibiting the growth and proliferation
IC50 [4]: 29.5 nM
colony number, inhibition of proliferation (FIG. 8A) [5]: significantly inhibit the proliferation
colony number, inhibition of proliferation (FIG. 8B) [6]: significantly inhibit the proliferation
wound area, inhibition of migration (FIG. 9A) [7]: significantly inhibit the migration
wound area, inhibition of migration (FIG. 9B) [8]: significantly inhibit the migration

EC83-M1 mimic: modified EC83 dsRNA; antisense SEQ ID NO: 1 GCCGAAG[s^4U]GGCGAAAUCGGUAG, sense SEQ ID NO: 4 CUACCGAUUUCGCCACUUCGGC (antisense GCCGAAGUGGCGAAAUCGGUAG; antisense: RNA, [s4U] at 8, backbone not given here; sense: RNA, backbone not given here; tRNA-derived fragment mimic duplex)
effect on growth and proliferation (FIGS. 7A, 7B) [1]: dose-dependent effect on inhibiting the growth and proliferation
IC50 [1]: 77.9 nM
effect on growth and proliferation (FIGS. 7A, 7B) [2]: dose-dependent effect on inhibiting the growth and proliferation
IC50 [2]: 69.6 nM
effect on growth and proliferation (FIGS. 7A, 7B) [3]: dose-dependent effect on inhibiting the growth and proliferation
IC50 [3]: 43.6 nM
effect on growth and proliferation (FIGS. 7A, 7B) [4]: dose-dependent effect on inhibiting the growth and proliferation
IC50 [4]: 54.2 nM
colony number, inhibition of proliferation (FIG. 8A) [5]: significantly inhibit the proliferation
colony number, inhibition of proliferation (FIG. 8B) [6]: significantly inhibit the proliferation
wound area, inhibition of migration (FIG. 9A) [7]: significantly inhibit the migration
wound area, inhibition of migration (FIG. 9B) [8]: significantly inhibit the migration

EC85 mimic: 22 bp dsRNA; antisense SEQ ID NO: 91 GCGAAGGUGGCGGAAUUGGUAG, sense SEQ ID NO: 185 CUACCAAUUCCGCCACCUUCGC; 5′-t of tRNA-Leu(CAG) (listed as RNA, chemistry not given here) [22 bp dsRNA; 5′-t of tRNA-Leu(CAG)]
cell viability of HCT-8 cells (FIG. 6A) [1]: effective to colorectal cancer cells

EC86 mimic: 22 bp dsRNA; antisense SEQ ID NO: 92 UCAAGUCCCCCCCCUCGCACCA, sense SEQ ID NO: 186 UGGUGCGAGGGGGGGGACUUGA; 3′-t of tRNA-Leu(CAG) (listed as RNA, chemistry not given here) [22 bp dsRNA; 3′-t of tRNA-Leu(CAG)]
cell viability of HCT-8 cells (FIG. 6A) [1]: effective to colorectal cancer cells

B1: tRNA-Leu(CAG): tRNA purified from Escherichia coli MRE600 total tRNA, SEQ ID NO: 218 (nucleic acid, listed as Escherichia coli)
chain: GCGAAGGUGGCGGAANNGGNAGACGCGCUAGCUUCAGGNGNUAGUGUCCUUACGGACGUGGGGGUNCAAGUCCCCCCCCUCGCACCA
modifications: expressed or natural sequence
cell viability of HCT-8 cells (FIG. 6A) [1]: effective to colorectal cancer cells

B2: tRNA-Val(UAC): tRNA purified from Escherichia coli MRE600 total tRNA, SEQ ID NO: 237 (nucleic acid, listed as Escherichia coli)
chain: GGGUGAUUAGCUCAGCDGGGAGAGCACCUCCCUUACAAGGAGGGGGUCGGCGGUNCGAUCCCGUCAUCACCCACCA
modifications: expressed or natural sequence
cell viability of HCT-8 cells (FIG. 6A) [1]: effective to colorectal cancer cells

From patent publication US11866704B2, “Nucleic acid molecules and uses thereof” (Macau University of Science and Technology, priority 2020, dated 2024)
